Measurements published in publication PMC10305119, “Analogs of 6-Bromohypaphorine with Increased Agonist Potency for α7 Nicotinic Receptor as Anti-Inflammatory Analgesic Agents” (Marine Drugs, 2023).
Where two headings read alike, the source gives them in different places.

Experiments:
[1] = system: TLR4 expression on macrophages; test: Flow cytometry of TLR4 receptor on macrophages; assay type: cell-based, human; conditions: 48 h incubation
Description: (§1) The effect of the above-listed compounds on the expression of the TLR4 receptor and the CD86 protein was studied by flow cytometry after 48 h incubation with macrophages. The interaction of bacterial endotoxins with the TLR4 receptor is known to activate the expression of several pro-inflammatory cytokine genes, while the co-stimulatory molecule CD86 plays an important role in […] inflammatory responses. A decrease in the expression of the TLR4 receptor was observed under the action of all tested compounds (Figure 4c,e), the rank order of these TLR4-suppressing effects was as follows: hypaphorine (14%) < PNU 282,987 (21%) < 6ID (31%).
(§2) Peripheral blood mononuclear cells (PBMCs) were separated by Ficoll-Paque PLUS density gradient centrifugation. PBMCs were placed in a sterile Petri dish and incubated at 37 °C for 2 h. Unattached cells were then removed by washing with PBS and substituted with fresh complete RPMI 1640 medium. To generate monocyte-derived macrophages (MDMs), 50 ng/mL GM-CSF was added to the isolated monocytes and cultured for 6 days to differentiate them into non-polarized MDMs.
(§3) Figure 4 The effects of PNU 282987, hypaphorine, and D-6-iodohypaphorine methyl ester (6ID) on macrophage membrane proteins expression. Cells were treated with these compounds for 48 h and then analyzed by flow cytometry. PNU 282,987 led to an increase in the (a) CD11b and (b) CD11c expression. (c): All tested compounds led to a decrease in TLR4 expression. (d): Macrophages stimulation with hypaphorine and 6ID promoted an increase in CD86 expression. Results obtained in three independent experiments on macrophages from different donors and presented as mean ± SD. One-way ANOVA tests with Tukey post hoc test: * p ˂0.05, ** p ˂ 0.01, **** p < 0.0001 in comparison with untreated cells.

[2] = system: CD11c expression on macrophages; test: Flow cytometry of macrophage membrane protein CD11c; assay type: cell-based, human; conditions: 48 h
Description: (§4) The selective agonist PNU 282,987 increased CD11b and CD11c protein expression by an average of 10% and 26%, respectively (Figure 4a,b).
as §2, §3

STAT3 phosphorylation = STAT3 phosphorylation in LPS-stimulated macrophages (flow cytometry); assay type: cell-based, human; conditions: compound 1 h, then LPS 3 h; control MFI 49
Description: To gain an insight into the signaling induced by the tested compounds, ERK1/2 and STAT3 phosphorylation was checked. Macrophages were treated with tested compounds for 1 h, after which they were stimulated with LPS for 3 h.
as §2
Figure 5 Effects of the analyzed compounds on signaling pathways in LPS-stimulated macrophages. Cells were treated with PNU 282987, hypaphorine, or 6-iodohypaphorine methyl ester (6ID) for 1 h and then stimulated with LPS for 3 h. Phosphorylated ERK1/2 and STAT3 were quantified by flow cytometry with specific antibodies. […] (c): Representative histogram showing the increase in ERK 1/2 phosphorylation in comparison to control. The numbers in the histograms show the MFI ± SD (n = 3). MFI—geometrical mean fluorescence intensity. One-way ANOVA tests with Tukey post hoc test: * p ˂ 0.05, ** p ˂ 0.01, *** p < 0.001 in comparison with untreated cells. TEXT PRINTED IN THE PICTURE: (c) Control: PE-ERK 1/2 Phospho: 193.7±1.5 | (c) PNU 282987: PE-ERK 1/2 Phospho: 251.3±13.7 | (c) Hy: PE-ERK 1/2 Phospho: 246.0±15.7 | (c) 6ID: PE-ERK 1/2 Phospho: 273.7±8.1 DOUBTS OF THE COPYIST ABOUT THIS PICTURE: Panel c: no measure or unit is printed beside the numbers; the x-axis label "PE-ERK 1/2 Phospho" is used as the measure / "Control" is the untreated reference rather than a substance; it is included because a value is printed with it

[3] = system: CD86 expression on macrophages; test: Flow cytometry of CD86 protein on macrophages; assay type: cell-based, human; conditions: 48 h incubation
Description: as §1, §2, §3

[4] = system: CD11b expression on macrophages; test: Flow cytometry of macrophage membrane protein CD11b; assay type: cell-based, human; conditions: 48 h
Description: as §4, §2, §3

α7 nAChR = system: α7 nAChR; parameters: method as in PMID 25775422; conditions: cited from earlier work; for EC50: read-out: EC50 / potency for α7 nAChR
human α7 nAChR = molecular target: T1, human α7 nAChR (Homo sapiens, UniProt P36544); test: Calcium fluorescence assay on α7 nAChR expressed in Neuro2a cells, in the presence of PNU120596; assay type: cell-based; conditions: for EC50: human α7 nAChR in Neuro2a cells, PNU120596 10 μM present
T1 construct: expressed in transfected cells; host or cells: mouse neuroblastoma Neuro2a, transient co-transfection with Ric-3 (Ric3-pCMV6-XL5, OriGene) and the calcium sensor Case12
T1 sequence (P36544 23-502): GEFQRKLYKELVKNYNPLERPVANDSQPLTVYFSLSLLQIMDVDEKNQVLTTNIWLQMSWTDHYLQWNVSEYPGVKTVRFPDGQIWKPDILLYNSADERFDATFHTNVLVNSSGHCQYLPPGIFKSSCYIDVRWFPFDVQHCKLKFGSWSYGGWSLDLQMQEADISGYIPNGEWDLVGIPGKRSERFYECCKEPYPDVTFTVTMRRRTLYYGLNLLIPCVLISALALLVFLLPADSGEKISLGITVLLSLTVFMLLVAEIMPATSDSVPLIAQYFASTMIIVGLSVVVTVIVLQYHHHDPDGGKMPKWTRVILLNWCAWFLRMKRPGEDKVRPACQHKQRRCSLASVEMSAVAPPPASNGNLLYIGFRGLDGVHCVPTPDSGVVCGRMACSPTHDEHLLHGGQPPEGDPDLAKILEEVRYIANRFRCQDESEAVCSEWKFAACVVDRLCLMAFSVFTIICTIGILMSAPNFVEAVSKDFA
Description: A panel of the synthesized compounds was tested to determine their activity on α7 nAChR by fluorescence detection of cytoplasmic calcium rise (Figure 2a).
Mouse neuroblastoma Neuro2a cells were purchased from the Russian collection of cell cultures (Institute of Cytology, Russian Academy of Sciences, Saint Petersburg, Russia). Cells were cultured in Dulbecco’s modified Eagle’s essential medium (Paneco, Moscow, Russia) supplemented with 10% fetal bovine serum (Sigma, St. Louis, MO, USA). The cells one day before transfection were subcultured and plated at a density of 10,000 cells per well on a 96-well plate. The next day, Neuro2a cells were transiently transfected with plasmids coding α7 nAChR (human α7 nAChR-pCEP4) or its mutants, the chaperone Ric-3 (Ric3-pCMV6-XL5, OriGene, USA) and a fluorescent calcium sensor Case12 (pCase12-cyto vector, Evrogen, Russia) in molar ratio 4:1:1. Lipofectamine transfection protocol (Invitrogen, Waltham, MA, USA) was performed as recommended by the manufacturer. Transfected cells were grown at 37 °C in a CO2 incubator for 48 h.
Calcium […] assay was performed as described previously. Briefly, Transfected Neuro2a cells were grown on black 96-well plates (Corning, Somerville, MA, USA) at 37 °C in a CO2 incubator for 72 h, then growth medium was substituted with buffer containing 140 mM NaCl, 2 mM CaCl2, 2.8 mM KCl, 4 mM MgCl2, 20 mM HEPES, 10 mM glucose; pH 7.4.
Cells were incubated with the α7 nAChR positive allosteric modulator PNU120596 (10 μM, Tocris, Bristol, UK) for 20 min at room temperature before the addition of tested compounds. Plates were measured in microplate reader Hidex Sence (Hidex, Turku, Finland) using excitation at 485 nm and emission at 535 ± 10 nm. Fluorescence peak intensity in each well was expressed as a percentage of the maximal obtained response. Data files were analysed using Hidex Sence software (Hidex, Turku, Finland). Controls were run in the presence of 4 μM α-cobratoxin.
The R statistical programming environment “https://www.r-project.org/” (accessed on 16 June 2023) was used to analyze the results. Base R graphics and ggplot2 [54] graphical library were used for the data visualisation. Dose-response curves were fitted using “nlm” function and the following equation: response ~ (100/1 + (EC50/x)^n), where x denotes base 10 logarithm of ligand concentration in moles per liter (normalized to 1M) and n is the Hill coefficient. Libraries “rgl” “https://CRAN.R-project.org/package=rgl” (accessed on 16 May 2023) and “barplot3d” “https://cran.r-project.org/src/contrib/Archive/barplot3d/” (accessed on 16 May 2023) were used to generate the 3D bar chart shown on Figure 2b.
Figure 2 In vitro activity determination of the synthesized compounds. […] The receptor activation was detected as an increase in fluorescent signal in cell cytoplasm by fluorescence microscopy or as total fluorescence of the well in 96-well plate reader setup. Normalized fluorescence amplitude was plotted against base 10 logarithm of mole per liter concentration of the tested agonist and EC50 values were than calculated using dose-response equation. […] Substitutions in the 6th position of the indole ring (designated as X) were halogens (green shadow), hydrogen bond acceptors (yellow shadow) or hydrogen bond donors (blue shadow). Carboxy group modifications were comprised by free acid (Q = OH), ethers (Q = OCH3, OC2H5), and amides (Q = NH2, NHCH3).

[5] = molecular target: T2, human α3-containing nAChRs (Homo sapiens, UniProt P32297); test: Calcium imaging of α3-containing nAChRs in SH-SY5Y cells (nicotine-induced calcium rise); assay type: cell-based; conditions: for agonism on α3* nAChR (calcium response): compound alone
T2 construct: endogenous in cells; host or cells: human neuroblastoma SH-SY5Y
T2 sequence (P32297 32-505): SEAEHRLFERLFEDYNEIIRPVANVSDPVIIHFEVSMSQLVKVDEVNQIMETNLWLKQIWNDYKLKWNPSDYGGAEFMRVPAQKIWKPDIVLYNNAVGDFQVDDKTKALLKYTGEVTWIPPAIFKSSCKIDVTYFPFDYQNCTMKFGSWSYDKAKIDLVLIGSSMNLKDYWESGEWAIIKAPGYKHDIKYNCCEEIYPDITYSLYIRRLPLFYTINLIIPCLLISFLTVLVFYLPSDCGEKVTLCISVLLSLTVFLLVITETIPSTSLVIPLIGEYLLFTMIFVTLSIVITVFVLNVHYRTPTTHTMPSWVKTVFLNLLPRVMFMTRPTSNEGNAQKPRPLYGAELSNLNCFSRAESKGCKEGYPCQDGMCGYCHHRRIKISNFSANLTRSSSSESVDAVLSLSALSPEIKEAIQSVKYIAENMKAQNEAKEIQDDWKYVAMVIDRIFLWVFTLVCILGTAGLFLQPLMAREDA
Description: Two of the studied compounds with high and medium agonist potency for α7 nAChR (6CF and 6ID, Table 1) were tested for activity toward α3* nAChR by calcium imaging.
Normalized data are presented as mean ± standard error. n = 6–7.

Question: With `O=C(N[C@H]1CN2CCC1CC2)c1ccc(Cl)cc1` [PNU 282,987] as the compound, how does the “decrease in the expression of the TLR4 receptor” value [1] read?
Answer: The value was 21%.

Question: What about the “increase in CD11c protein expression” value [2] of the same compound?
Answer: Its value is 26%.

Question: And the “STAT3 phosphorylation, MFI” value (STAT3 phosphorylation)?
Answer: Its value is “increase in the phosphorylation”.

Question: What about the “increase in the expression of CD86” value [3] of the same compound?
Answer: Its value is “no effect”.

Question: And the “increase in CD11b protein expression” value [4]?
Answer: Its value is 10%.

Question: For `C[N+](C)(C)[C@@H](Cc1c[nH]c2cc(Br)ccc12)C(=O)[O-]` [6-bromohypaphorine], which “α7 nAChR agonistic activity” value (α7 nAChR; as previously reported) is on record?
Answer: Its value is “agonistic activity in high micromolar concentrations”.

Question: Which EC50 (human α7 nAChR; read-out: EC50) does the source give for `COC(=O)[C@@H](Cc1c[nH]c2cc(C(F)(F)F)ccc12)[N+](C)(C)C` [Compound 15, (D)-6-trifluoromethylhypaphorine methyl ester] here?
Answer: Its EC50 is 5.14 µM.

Question: What about the “agonism on α3* nAChR (calcium response)” value ([5]; listed as 6CF) of the same compound?
Answer: Its value is “Neither 6ID, which was most active agonist of α7 nAChR, nor 6CF showed detectable agonism on α3* nAChR at concentrations up to 30 µM”.

Question: And the “agonism on α3* nAChR (calcium response)” value ([5]; listed as 6CF3)?
Answer: Its value is “does not evoke noticeable calcium response in concentrations 10, 1, and 0.1 μM”.

Question: And the IC50 ([5]; inhibition of nicotine (100 μM)-induced calcium rise)?
Answer: The IC50 was 2.4 ± 1.2 µM.

Question: Which results are given for `C[N+](C)(C)C(Cc1c[nH]c2cc([N+](=O)[O-])ccc12)C(=O)[O-]` (stereo not shown) [Compound 14, 6-nitrohypaphorine]?
Answer: α7 nAChR agonistic activity (human α7 nAChR; at concentrations up to 1 mM, PNU 120,596 present): does not show any agonistic activity; EC50 (human α7 nAChR): no agonistic activity

Question: For `COC(=O)[C@H](Cc1c[nH]c2ccccc12)[N+](C)(C)C` [Compound 4, methyl ester of L-hypaphorine], which EC50 (human α7 nAChR; read-out: EC50) is on record?
Answer: The EC50 was 27 µM.

Question: What about the “increase in the expression of CD86” value [3] of the same compound?
Answer: Its value is 26%.
